Data published in patent US8410152B2 (Max-Planck-Gesellschaft zur Forderung der Wissenschaften e. …, priority 2006, dated 2013).
Like-named read-outs stand apart in the source and are kept apart here.

Tests used:
uninduced N2A cells = assay type: cell-based; conditions: cell death as percent of LDH released into medium vs total LDH, compound 10 μM
Method: Neurotoxicity assay: Neurotoxicity was assessed using an LDH (lactate dehydrogenase) assay kit (Roche, Mannheim, Germany) according to the manufacturer's specifications. In the viability assay the aggregation inhibitor compound was added at a final concentration of 10 μM to uninduced N2A cells. The activity of LDH was measured spectrophotometrically at 492 nm. Cell death was calculated as percent of LDH released into medium, compared to total LDH obtained after total cell lysis.

N2a/K18ΔK280 cells = experiment: Tau aggregation and inhibition assay in cells (ThS staining); assay type: cell-based; conditions: for inhibition at 10 µM: 120 h, read-out: Inhibition in cells; for Inhibition in cells (result in words: cytotoxicity): compound 10 μM
Method: Selection of an N2a, Tet-On, G418-resistant cell line: N2a cells were cotransfected with both the pUHD172-1 plasmid (encoding the rtTA, obtained from H. Bujard, Heidelberg) and pEU-1 plasmid (encoding G418 resistance, a derivative of pRc/CMV, Invitrogen) (ratio 20:1; 1 μg/well of 6-well plates) using the DOTAP transfection reagent (Roche, Basel, CH). The cells were cultured in Eagle's Minimum Essential Medium (MEM) supplemented with 10% defined fetal bovine serum and subjected to G418 (600 μg/ml) and selection. The cells were fed with fresh media every 4 days for 3-4 weeks when single colonies appeared. Clones were tested for the induction level by transient transfection of pUHG 16-3 plasmid and the induction of β-galactosidase was measured.
Generation of inducible Tet-On cell lines: The DNA fragments encoding the appropriate tau constructs (K18WT, K18ΔK280, K18/ΔK280/PP) were inserted into the bidirectional vector pBI-5 between ClaI and SalI restriction sites (pBI-5 is an unpublished derivative of pBI-2, Baron et al., 1995). The pBI-5/K18-derived plasmids with pX343 (plasmid encoding the hygromycin resistance) were used for cotransfection of N2a/Tet-On, G418-resistant cells with the aid of DOTAP (20:1 plasmid ratio; 1 μg/well of 6-well plates). The cells were seeded at 4×10^5 cells per well. On the following day cells were transferred to 100-mm dishes and selected with 100 μg/ml of hygromycin and 600 μg/ml of G418. Clonal cell lines were screened for the inducible expression of K18 derivatives by measuring luciferase activity with the luciferase assay and immunofluorescence for tau protein with the polyclonal pan-tau antibody K9JA.
Induction of K18-derivatives in Tet-On N2a cells: The inducible N2a/K18-derivatives cells were cultured in MEM medium supplemented with 10% fetal calf serum, 2 mM glutamine and 0.1% nonessential amino acids. The expression of K18 constructs was induced by adding 1 μg doxycyclin (Dox) per 1 ml medium. The induction was continued for 7-11 days, the medium was changed 3 times (always complemented with doxycyclin). For tau solubility assays the cells were collected by pelleting during centrifugation at 1000×g for 5 min. The levels and solubility of tau K18/ΔK280 were determined following Greenberg and Davies (1990). The cells were homogenized (DIAX900, Heidolph, Schwabach, Germany) in 10 vol (w/v) of buffer consisting of 10 mM Tris-HCl (pH 7.4), 0.8 M NaCl, 1 mM EGTA, and 10% sucrose. The homogenate was spun for 20 min at 20000×g, and the supernatant was retained. The pellet was re-homogenized in 5 vol of homogenization buffer and re-centrifuged. Both supernatants were combined, brought to 1% N-laurylsarkosinate (w/v) and incubated for 1 hr at room temperature while shaking, followed by centrifugation at 100 000×g for 1 hr. The sarkosyl-insoluble pellets were resuspended in 50 mM Tris-HCl (pH 7.4), 0.5 ml per 1 g of starting material. The supernatant and sarkosyl-insoluble pellet samples were analyzed by Western blotting. The amount of material loaded for supernatant and sarkosyl-insoluble pellet represented about 0.5% and 15% of the total material present in the supernatant and pellet respectively (the ratio between supernatant and sarkosyl insoluble pellet was always 1:30). For quantification of tau levels in each fraction, the Western blots were probed with pan-tau antibody K9JA and analyzed by densitometry (LAS 3000 and AIDA software, Raytest, Straubenhardt, Germany).
Quantitation of tau aggregation in cells by Thioflavin S (ThS) staining: Tet-On inducible undifferentiated N2a cells were treated with 1 μg/ml doxycyclin for 5, 7 or 9 days in a culture dish. After that the cells were trypsinized and transferred to coverslips and incubated overnight. The cells on the coverslips were fixed with 4% paraformaldehyde in PBS for 15 min, then permeabilized with 80% MeOH for 6 min at −20° C., and incubated with 0.1% Thioflavin S for 5 min and washed three times in ethanol (50%). […]

tau construct K19 = tau construct K19 (Homo sapiens, UniProt P10636); experiment: Thioflavine S (ThS) assay for aggregation of tau; assay type: biochemical
Chain of tau construct K19 (P10636 with tags, fused parts or gaps isoform P10636-2 limits assumed): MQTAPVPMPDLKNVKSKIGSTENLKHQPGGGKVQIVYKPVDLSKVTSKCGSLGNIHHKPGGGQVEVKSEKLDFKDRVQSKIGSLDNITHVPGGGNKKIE
Method: Thioflavine S (ThS) Assay for aggregation of tau: 10 μM of the tau construct K19 were incubated with compounds in a concentration range from 1 nM up to 200 μM in the presence of 2.5 μM heparin in 50 mM NH4Ac buffer over night at 37° C. After addition of 20 μM ThS the signal was measured at 521 nm (emission) at an excitation wavelength of 440 nm. The results of this assay are presented in the IC50 column and DC50 column of Table 1 below.

[1] = N2a/K18ΔK280 cells, compound 10 μM with doxycyclin, 5 days, ThS-positive cells scored
[2] = 10 μM tau construct K19, 2.5 μM heparin, ThS fluorescence, read-out: DC50
[3] = 10 μM tau construct K19, 2.5 μM heparin, over night at 37° C., ThS fluorescence, read-out: ID50 (the source's name)
[4] = 10 μM tau construct K19, 2.5 μM heparin, ThS fluorescence

Compound	LDH (uninduced N2A cells) [%]	inhibition at 10 µM (N2a/K18ΔK280 cells; [1]) [%]	DC50 (tau construct K19; [2]) [µM]	IC50 (tau construct K19; [3]) [µM]	inhibition at 10 µM (N2a/K18ΔK280 cells) [%]	Inhibition in cells (result in words: cytotoxicity) (N2a/K18ΔK280 cells; N2a/K18ΔK280 cells, 5 days)	IC50 (tau construct K19) [µM]	DC50 (tau construct K19; [4]) [µM]
O=C(NNc1nc(-c2ccc([N+](=O)[O-])cc2)cs1)c1ccc(-c2ccccc2)cc1 [Comp. 7, N′-[4-(4-nitrophenyl)-1,3-thiazol-2-yl]-1,1′-biphenyl-4-carbohydrazide]	5.0	69.7	1.2	1.3				
O=C(NNc1nc(-c2ccc(N3CCCC3)cc2)cs1)c1ccc(-c2ccccc2)cc1 [Comp. 9, N′-[4-(4-pyrrolidin-1-ylphenyl)-1,3-thiazol-2-yl]-1,1′-biphenyl-4-carbohydrazide]	6.2	60.5	1	1.9				
O=C(NNc1nc(-c2ccc(N3CCCC3)cc2)cs1)c1cccnc1 [Comp. 10, N′-[4-(4-pyrrolidin-1-ylphenyl)-1,3-thiazol-2-yl]nicotinohydrazide]	12.5	62.5	1.4	2				
O=C(NNc1nc(-c2ccc([N+](=O)[O-])cc2)cs1)c1ccc2c(c1)OCO2 [Comp. 13, N′-[4-(4-nitrophenyl)-1,3-thiazol-2-yl]-1,3-benzodioxole-5-carbohydrazide]	9.3		0.7	3.9	66.1			
COc1ccc(-c2csc(NNC(=O)N3CCCCC3)n2)cc1 [Comp. 49, N′-[4-(4-methoxyphenyl)-1,3-thiazol-2-yl]piperidine-1-carbohydrazide]	−3.9		> 200	> 200		Cytotoxic at 5 d		
O=C(NNc1nc(-c2ccc3ccccc3c2)cs1)c1ccc(C(F)(F)F)cc1 [Comp. 50, N′-[4-(2-naphthyl)-1,3-thiazol-2-yl]-4-(trifluoromethyl)benzohydrazide]	−7.6	52.6						
COc1cc(-c2csc(NNC(=O)c3ccc(C(F)(F)F)cc3)n2)cc(OC)c1O [Comp. 51, N′-[4-(4-hydroxy-3,5-dimethoxyphenyl)-1,3-thiazol-2-yl]-4-(trifluoromethyl)benzohydrazide]	−10.4	42.6	> 200	189				
O=C(NNc1nc2c(s1)Cc1ccccc1-2)c1cc2ccccc2[nH]1 [Comp. 52, N′-8H-indeno[1,2-d][1,3]thiazol-2-yl-1H-indole-2-carbohydrazide]	−9.6				53.2		49.4	89.1
COc1cc(-c2csc(NNC(=O)c3cc4ccccc4[nH]3)n2)cc(OC)c1O [Comp. 53, N′-[4-(4-hydroxy-3,5-dimethoxyphenyl)-1,3-thiazol-2-yl]-1H-indole-2-carbohydrazide]	−7.3				49.9		171	> 200
O=C(NNc1nc(C2C3CC4CC(C3)CC2C4)cs1)c1cc2ccccc2[nH]1 (stereo not drawn) [Comp. 54, N′-[4-(2-adamantyl)-1,3-thiazol-2-yl]-1H-indole-2-carbohydrazide]	−2.1				56.6		> 200	> 200
O=C(NNc1nc(-c2ccc(Cl)cc2)cs1)c1cc2ccccc2[nH]1 [Comp. 55, N′-[4-(4-chlorophenyl)-1,3-thiazol-2-yl]-1H-indole-2-carbohydrazide]	−1.1				54		88.9	105
CC(C)COc1ccc(-c2csc(NNC(=O)c3cc4ccccc4[nH]3)n2)cc1 [Comp. 56, N′-[4-(4-isobutyloxyphenyl)-1,3-thiazol-2-yl]-1H-indole-2-carbohydrazide]	−0.6				50.8		111	> 200
N#Cc1ccc(-c2csc(NNC(=O)c3cc4ccccc4[nH]3)n2)cc1 [Comp. 57, N′-[4-(4-cyanophenyl)-1,3-thiazol-2-yl]-1H-indole-2-carbohydrazide]	2.7				49.3		> 200	> 200
O=C(NNc1nc(-c2ccc(-c3ccccc3)cc2)cs1)c1cc2ccccc2[nH]1 [Comp. 58, N′-[4-(1,1′-biphenyl-4-yl)-1,3-thiazol-2-yl]-1H-indole-2-carbohydrazide]	54.5					Cytotoxic at 5 d	98.9	> 200
O=C(NNc1nc(-c2ccc3ccccc3c2)cs1)c1cc2ccccc2[nH]1 [Comp. 59, N′-[4-(2-naphthyl)-1,3-thiazol-2-yl]-1H-indole-2-carbohydrazide]	1.9					Cytotoxic at 5 d	130	138
O=C(NNc1nc(-c2ccccc2Br)cs1)c1cc2ccccc2[nH]1 [Comp. 60, N′-[4-(2-bromophenyl)-1,3-thiazol-2-yl]-1H-indole-2-carbohydrazide]	0.1				41.5		> 200	> 200
Cc1sc(NNC(=O)c2ccc(-c3ccccc3)cc2)nc1-c1ccc([N+](=O)[O-])cc1 [Comp. 61, N′-[5-methyl-4-(4-nitrophenyl)-1,3-thiazol-2-yl]-1,1′-biphenyl-4-carbohydrazide]	16.6	62.6	13.6	9.8				
Cc1nc(NNC(=O)c2ccc3[nH]cnc3c2)sc1-c1ccc(Br)cc1 [Comp. 62, N′-[5-(4-bromophenyl)-4-methyl-1,3-thiazol-2-yl]-1H-benzimidazole-5-carbohydrazide]	−2.8		38.1	33.5	68.3			
Cc1nc(NNC(=O)c2ccc(F)cc2)sc1-c1ccc(Br)cc1 [Comp. 63, N′-[5-(4-bromophenyl)-4-methyl-1,3-thiazol-2-yl]-4-fluorobenzohydrazide]	1.2		15.9	13.6	50			
COc1ccc(C(=O)NNc2nc(C3C4CC5CC(C4)CC3C5)cs2)cc1 (stereo not drawn) [Comp. 65, N′-[4-(2-adamantyl)-1,3-thiazol-2-yl]-4-mathoxybenzohydrazide]	39.4	42.1	> 200	112				
